In patent US20220330549A1, “USE OF N-BENZYLBENZAMIDE-BASED COMPOUND AS HERBICIDE” (Northwest A&F University, priority 2020, published 2022):

How the values were obtained:
Format in all cases: in vivo
[1] = test system: Barnyard grass; assay: Herbicidal activity test for indoor pre-emergence soil treatment; set-up: key: level 1-9; higher = more weed remaining vs blank control; settings: 150 g a.i./ha, visual inspection 21 days after treatment
In short: (§1)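 Pre-emergence test following NY/T 1155.3-2006: weed seeds were sown in moistened neutral sandy loam (≤2% organic matter) and covered with 0.5–2.0 cm of soil. After 24 h, the soil was sprayed with a 10% EC diluted in water at 150 g(a.i.)/ha. Damage was scored visually on a 1–9 scale at 21 days.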

[2] = test system: Piemarker; assay: as above; set-up: key: level 1-9; higher = more weed remaining vs blank control; settings: 150 g a.i./ha, visual inspection 21 days after treatment
In short: as §1

[3] = test system: green bristlegrass; assay: as above; set-up: key: level 1-9; higher = more weed remaining vs blank control; settings: 150 g a.i./ha, visual inspection 21 days after treatment
In short: as §1

[4] = test system: Amaranthus retroflexus; assay: as above; set-up: key: 1-9 levels; higher = more weed remaining vs blank control; settings: 150 g a.i./ha, visual inspection 21 days after treatment
In short: as §1

[5] = test system: Digitaria sanguinalis; assay: as above; set-up: key: 1-9 levels; higher = more weed remaining vs blank control; settings: 150 g a.i./ha, visual inspection 21 days after treatment
In short: as §1

[6] = test system: Humulus scandens; assay: as above; settings: 150 g a.i./ha, visual inspection 21 days after treatment
In short: as §1

[7] = test system: Amaranthus retroflexus; assay: Herbicidal activity test for indoor post-emergence spraying on stems and leaves; set-up: key: grade level by weed remaining vs blank control, e.g. 5 = 10.1-15%; settings: 150 g a.i./ha, visual inspection 21 days after treatment
In short: (§2)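 Greenhouse-grown weeds, post-emergence foliar spray (NY/T 1155.4-2006 method); visual scoring at 21 d post-treatment as levels vs. untreated blank control (e.g., level 5 = 10.1–15%, level 8 = 35.1–67.5% of control weed).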

[8] = test system: Barnyard grass; assay: as above; set-up: key: grade level by weed remaining vs blank control, e.g. 5 = 10.1-15%; settings: 150 g a.i./ha, visual inspection 21 days after treatment
In short: as §2

[9] = test system: Digitaria sanguinalis; assay: as above; set-up: key: grade level by weed remaining vs blank control, e.g. 5 = 10.1-15%; settings: 150 g a.i./ha, visual inspection 21 days after treatment
In short: as §2

[10] = test system: Humulus scandens; assay: as above; set-up: key: grade level by weed remaining vs blank control, e.g. 5 = 10.1-15%; settings: 150 g a.i./ha, visual inspection 21 days after treatment
In short: as §2

[11] = test system: Piemarker; assay: as above; set-up: key: grade level by weed remaining vs blank control, e.g. 5 = 10.1-15%; settings: 150 g a.i./ha, visual inspection 21 days after treatment
In short: as §2

[12] = test system: green bristlegrass; assay: as above; set-up: key: grade level by weed remaining vs blank control, e.g. 5 = 10.1-15%; settings: 150 g a.i./ha, visual inspection 21 days after treatment
In short: as §2

[13] = test system: Broadleaf weed; assay: Post-emergence herbicidal activity test in a paddy field; set-up: key: level scale; higher level = more weed left vs blank control; settings: 150 g a.i./ha (penoxsulam control 250 g(a.i.)/h)
In short: (§3)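 Efficacy was visually estimated 15 and 30 days after spraying, grading weed coverage relative to an untreated neighbouring plot (level 2 = 0 to 2.5%, level 9 = 67.6 to 100%). Treatments were 150 g(a.i.)/ha from 10% emulsifiable concentrates applied at the 4-5 leaf rice stage, four repeats of 50 m^2 each.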

[14] = test system: Cyperaceae; assay: as above; set-up: key: level scale; higher level = more weed left vs blank control; settings: 150 g a.i./ha (penoxsulam control 250 g(a.i.)/h)
In short: as §3

[15] = test system: Gramineae; assay: as above; set-up: key: level scale; higher level = more weed left vs blank control; settings: 150 g a.i./ha (penoxsulam control 250 g(a.i.)/h)
In short: as §3

[16] = test system: Acalypha australis; assay: Field test for weed control in a corn field; settings: for Post-emergence weed control effect, Acalypha australis: 150 g a.i./ha, after treatment
In short: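 Herbicidal activity against weeds was assessed in corn plots by the GB/T 17980.42-2000 method. Corn at the 2–5 leaf stage received water sprays of 10% emulsifiable concentrates at 150 g(a.i.)/ha, four repeats per treatment over 20 m^2. A 25% mesotrione oil dispersion was the reference. Damage symptoms and severity were rated on levels 1-9 relative to weeds in the blank control area.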

[17] = test system: Amaranthus retroflexus; assay: Field test for weed control in a corn field; settings: for Post-emergence weed control effect, Amaranthus retroflexus: 150 g a.i./ha, 30 days after treatment
In short: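 Post-emergence control of Amaranthus retroflexus was assessed in corn plots using the GB/T 17980.42-2000 method. Emulsifiable concentrates (10%) in water were applied by spraying at the 2- to 5-leaf crop stage on 20 m^2 plots, four replicates each, alongside a mesotrione 25% oil dispersion reference. Herbicidal activity was scored on 1-9 levels by weed amount relative to blank control areas.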

[18] = test system: Barnyard grass; assay: Field test for weed control in a corn field; settings: for Post-emergence weed control effect, Barnyard grass: 150 g a.i./ha, 30 days after treatment
In short: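 Herbicidal activity against barnyard grass was assessed in corn field plots of 20 m^2, with four replicates per treatment. Compounds were applied as water-diluted 10% emulsifiable concentrates at 150 g(a.i.)/ha at the 2-5 leaf corn stage, with 25% mesotrione oil dispersion as the reference agent. Damage was scored on a 1-9 scale against untreated blank plots.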

[19] = test system: Chenopodium album; assay: Field test for weed control in a corn field; settings: for Post-emergence weed control effect, Chenopodium album: 150 g a.i./ha, after treatment
In short: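 Field weed-control testing in corn, run per GB/T 17980.42-2000, scored Chenopodium album on a 1-9 level scale, where each level matches a percentage range of weed remaining relative to the blank control area. Sprays of 10% emulsifiable concentrates in water delivered 150 g(a.i.)/ha at the corn 2-leaf to 5-leaf stage on 20 m^2 plots, four replicates each. Mesotrione 25% oil dispersion served as reference.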

[20] = test system: Convolvulus arvensis; assay: Field test for weed control in a corn field; settings: for Post-emergence weed control effect, Convolvulus arvensis: 150 g a.i./ha, after treatment
In short: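 Post-emergence herbicidal activity on Convolvulus arvensis was scored in a corn field on a 1-9 scale, based on symptoms and damage severity. Each level corresponds to the weed remaining as a percentage of the blank control area. Sprays of 10% emulsifiable concentrate at 150 g(a.i.)/ha went on at the corn 2–5 leaf stage, with four replicates of 20 m^2 per treatment.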

[21] = test system: Digitaria sanguinalis; assay: Field test for weed control in a corn field; settings: for Post-emergence weed control effect, Digitaria sanguinalis: 150 g a.i./ha, after treatment
In short: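 Field trial in a corn field following GB/T 17980.42-2000. Test compounds were formulated as 10% emulsifiable concentrates, diluted in water and sprayed post-emergence at 150 g(a.i.)/ha when corn had 2 to 5 leaves, with 4 replicates on 20 m^2 plots. Control of Digitaria sanguinalis was scored on a 1-9 scale based on weed damage relative to the untreated blank area.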

[22] = test system: Portulaca oleracea; assay: Field test for weed control in a corn field; settings: for Post-emergence weed control effect, Portulaca oleracea: 150 g a.i./ha, after treatment
In short: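 Post-emergence weed control was evaluated in a corn field by the GB/T 17980.42-2000 method. Emulsifiable concentrates (10%) in water were applied as sprays at 150 g(a.i.)/ha at the 2-5 leaf corn stage, in four replicate 20 m^2 plots. A 25% mesotrione oil dispersion served as control agent. Effects were graded 1-9 relative to weed remaining in blank control areas.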

[23] = test system: Solanum nigrum; assay: Field test for weed control in a corn field; settings: for Post-emergence weed control effect, Solanum nigrum: 150 g a.i./ha, 30 days after treatment
In short: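 In a corn field trial based on GB/T 17980.42-2000, 10% emulsifiable concentrates diluted in water were sprayed at 150 g(a.i.)/ha at the 2 to 5 leaf stage of corn. Each treatment used 20 m^2 plots and was repeated 4 times, with 25% mesotrione oil dispersion as the reference agent. Solanum nigrum damage was scored on a 1-9 scale against blank control plots.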

[24] = test system: goosegrass; assay: Field test for weed control in a corn field; settings: for Post-emergence weed control effect, Goose grass: 150 g a.i./ha, after treatment
In short: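 In this field trial in corn, run per GB/T 17980.42-2000, test agents prepared as 10% emulsifiable concentrates were applied in water as sprays at 150 g(a.i.)/ha at the 2- to 5-leaf corn stage. Each treatment covered 20 m^2 and was repeated 4 times. Goosegrass control was scored 1-9 relative to weed remaining in blank control areas.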

[25] = test system: green bristlegrass; assay: Field test for weed control in a corn field; settings: for Post-emergence weed control effect, Green bristlegrass: 150 g a.i./ha, after treatment
In short: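 Herbicidal activity against green bristlegrass was assessed in corn field plots of 20 m^2 per GB/T 17980.42-2000. Test agents, formulated as 10% emulsifiable concentrates, were applied in water at 150 g(a.i.)/ha at the corn 2 leaves to 5 leaves stage, repeated 4 times. A 25% mesotrione oil dispersion served as the control agent, and weed damage was rated on levels 1-9.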

[26] = test system: nutgrass flatsedge; assay: Field test for weed control in a corn field; settings: for Post-emergence weed control effect, Nutgrass flatsedge: 150 g a.i./ha, after treatment
In short: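 Herbicidal effect on nutgrass flatsedge was measured in a field planted with corn, using the GB/T 17980.42-2000 method. Emulsifiable concentrates (10%) in water were sprayed at 150 g(a.i.)/ha during the 2-leaf to 5-leaf corn stage, on 20 m^2 plots repeated 4 times. 25% mesotrione oil dispersion was the control agent. Activity was scored from 1 to 9 by weed remaining relative to blank control plots.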

[27] = 150 g(a.i.)/ha, 21 days after treatments

Compound	Herbicidal Activity Barnyard grass [1]	Herbicidal Activity Piemarker [2]	Herbicidal Activity Green bristlegrass [3]	Herbicidal Activity Amaranthus retroflexus [4]	Herbicidal Activity Digitaria sanguinalis [5]	Herbicidal Activity Humulus scandens [6]	Herbicidal Activity Amaranthus retroflexus [7]	Herbicidal Activity Barnyard grass [8]	Herbicidal Activity Digitaria sanguinalis [9]	Herbicidal Activity Humulus scandens [10]	Herbicidal Activity Piemarker [11]	Herbicidal Activity Green bristlegrass [12]	Herbicidal activity 15 days after treatment Broadleaf weed [13]	Herbicidal activity 30 days after treatment Broadleaf weed [13]	Herbicidal activity 15 days after treatment Cyperaceae [14]	Herbicidal activity 30 days after treatment Cyperaceae [14]	Herbicidal activity 15 days after treatment Gramineae [15]	Herbicidal activity 30 days after treatment Gramineae [15]	Post-emergence weed control effect, Acalypha australis [16]	Post-emergence weed control effect, Amaranthus retroflexus [17]	further results
COc1ccc(OC)c(C(=O)NCc2cccc(F)c2)c1 [Compound A22, N-(3-fluorobenzyl)-2,5-dimethoxybenzamide]	1	2 (equivalent to 0 to 2.5% of the weed in the blank control area)	2 (equivalent to 0 to 2.5% of the weed in the blank control area)	2 (equivalent to 0 to 2.5% of the weed in the blank control area)	1	4 (equivalent to 5.1 to 10% of the weed in the blank control area)	1	1	1	1	1	2 (equivalent to 0 to 2.5% of the weed in the blank control area)	2 (equivalent to 0 to 2.5% of the weed in the blank control area)	1	2 (equivalent to 0 to 2.5% of the weed in the blank control area)	1	1	1	2 (equivalent to 0 to 2.5% of the weed in the blank control area)	1	Post-emergence weed control effect, Barnyard grass [18]: 2 (equivalent to 0 to 2.5% of the weed in the blank control area); Post-emergence weed control effect, Chenopodium album [19]: 1; Post-emergence weed control effect, Convolvulus arvensis [20]: 1; Post-emergence weed control effect, Digitaria sanguinalis [21]: 1; Post-emergence weed control effect, Portulaca oleracea [22]: 1; Post-emergence weed control effect, Solanum nigrum [23]: 2 (equivalent to 0 to 2.5% of the weed in the blank control area); Post-emergence weed control effect, Goose grass [24]: 2 (equivalent to 0 to 2.5% of the weed in the blank control area); Post-emergence weed control effect, Green bristlegrass [25]: 2 (equivalent to 0 to 2.5% of the weed in the blank control area); Post-emergence weed control effect, Nutgrass flatsedge [26]: 2 (equivalent to 0 to 2.5% of the weed in the blank control area)
Cc1cccc(CNC(=O)c2cccc(C)c2)c1 [Compound B14, 3-methyl-N-(3-methylbenzyl)benzamide]	1	1	1	2 (equivalent to 0 to 2.5% of the weed in the blank control area)	2 (equivalent to 0 to 2.5% of the weed in the blank control area)	3 (equivalent to 2.6 to 5% of the weed in the blank control area)	1	1	1	1	1	1	1	1	1	1	1	1	1	1	controlling effect on Acalypha australis [16, 27]: 1; controlling effect on Amaranthus retroflexus [17, 27]: 1; Post-emergence weed control effect, Barnyard grass [18]: 1; controlling effect on barnyard grass [18, 27]: 1; Post-emergence weed control effect, Chenopodium album [19]: 1; controlling effect on Chenopodium album [19, 27]: 1; Post-emergence weed control effect, Convolvulus arvensis [20]: 1; controlling effect on Convolvulus arvensis [20, 27]: 1; Post-emergence weed control effect, Digitaria sanguinalis [21]: 1; controlling effect on Digitaria sanguinalis [21, 27]: 1; Post-emergence weed control effect, Portulaca oleracea [22]: 1; controlling effect on Portulaca oleracea [22, 27]: 1; Post-emergence weed control effect, Solanum nigrum [23]: 1; controlling effect on Solanum nigrum [23, 27]: 1; Post-emergence weed control effect, Goose grass [24]: 1; controlling effect on goosegrass [24, 27]: 1; Post-emergence weed control effect, Green bristlegrass [25]: 1; controlling effect on green bristlegrass [25, 27]: 1; Post-emergence weed control effect, Nutgrass flatsedge [26]: 1; controlling effect on nutgrass flatsedge [26, 27]: 1
